Experimental findings from US4939134A, “26-aminocholesterol and derivatives and analogs thereof in the regulation of cholesterol accumulation in body tissue” (New York University, priority 1988, dated 1990) are described below.

The test system of experiment [1] is HepG2 Cells. Description: Total 125I-LDL binding to HepG2 cells. It counts as cell-based, human. Conditions: for I-LDL BINDING: HepG2, 10 ug/ml 125I-LDL, 4 h, 4° C., n = 3, untreated 36.0; for LDL-binding (in words): HepG2 / hepatic cells. The source says:
HepG2 cells were obtained from Dr. Barbara Knowles of the Wistar Institute, Pennsylvania. The HepG2 stock monolayers were maintained under the same conditions as the fibroblast monolayers, in a medium comprising MEM supplemented with 10% heat-inactivated FBS, and 1% (v/v) each of penicillin-streptomycin solution, non-essential and essential amino acids, and L-glutamine.
For experiments using HepG2 cells, confluent stock monolayers were washed once with Dulbecco's PBS, dissociated with 0.05-0.02% trypsin-EDTA followed by treatment with deoxyribonuclease I (0.1%), and were seeded (3.0×10^6) under identical conditions. The experimental MEM contained 25% (v/v) D2 O, 9% (v/v) delipidated FBS, and 1% (v/v) each of heat-inactivated FBS, penicillin-streptomycin, essential and non-essential amino acids, L-glutamine and 20 mM HEPES.
(§1) The fibroblast and hepatoblastoma cells were cultured in media containing 25% D2 O and 1% FBS in order to determine de novo cholesterol synthesis under conditions that permit receptor mediated cholesterol transport, according to the method of Easterman & Javitt et al., J. Lipid Res., 26: 950-954 (1985). Dish cultures of each cell type were prepared, and 26-aminocholesterol, dissolved in N,N-dimethylformamide (DMF, 9 ul per dish, 0.3% v/v) was added to each culture. The cells were then grown to confluence (96 hours, day 5). […] Duplicate or triplicate dishes containing 9 ul of DMF, but without 26-aminocholesterol, were used as controls.
LDL (d, 1.019-1.03) was isolated by sequential preparative ultracentrifugation of normal human plasma, using solid KBr for density adjustment, according to the methods of Havel et al., J. Clin. Invest., 34: 1345-1353 (1955) and Radding & Steinberg, J Clin. Invest., 39: 1560-1569 (1960). The isolated LDL was then iodinated with ^125 INa by the monochloride procedure of McFarlane, Nature, 102: 53 (1958), as modified for lipoproteins according to Bilheimer et al., Biochim. Biophys. Acta. 260: 212-221 (1972). To remove free iodine, the LDL preparation was subjected to column chromatography on a Sephadex G-25M disposable mini-column (Pharmacia PD-10) and was dialized against 0.15 M NaCl and […] EDTA, pH 7.4. The specific activity of all LDL preparations ranged between 160-300 cpm/mg of LDL proteins. ^125 I-LDL was stored at 4° C. and was sterilized by filtration through a 0.45 um membrane just prior to incubation with the treated fibroblast and hepatoblastoma cell cultures and control cultures.
For binding studies, a fixed concentration of 10 ug/ml of ^125 I-LDL was added directly to the monolayers of the confluent culture medium (at or near the 96th hour) and incubation was continued for a further 4 hours at 37° C. for fibroblasts and 4° C. for HepG2 cells. After this incubation, the culture dishes were placed on ice, the medium was removed, and the cell monolayers were washed as described in Goldstein & Brown, J. Biol. Chem., 249: 5153-5162 (1974). The monolayers were then scraped off the dishes with a teflon policeman and were solubilized with 1 ml of 0.1 N NaOH.
Cell-associated radioactivity was measured in a Packard auto gamma scintillation spectrometer Model 5160, and cell protein was measured by the method of Lowry et al., J. Biol. Chem., 193: 265-275 (1951), using bovine serum albumin as a standard. Total ^125 I-LDL binding was expressed as the mass of ^125 I-LDL (mg) per mg of cell protein. […]

Experiment [2] has as its system Human Fibroblasts. Description: Total cell cholesterol and percent esterified cholesterol in human fibroblasts. Conditions: 96 h, n = 3. It counts as cell-based. As to the method: (§2) Normal LDLR(+) human fibroblasts (GM3440) were obtained from the National Institute of General Medical Sciences Human Genetic Cell Repository. Stock fibroblast monolayers were maintained in T-75 disposable Nunc flasks, in a medium comprising 10 ml of MEM (Eagle's Minimum Essential Medium with Earl's salts, pH 7.4) supplemented with 10% (v/v) fetal bovine serum (FBS), 2% (v/v) non-essential and essential amino acids, 1% (v/v) MEM vitamins, 1% L-glutamine (292 ug/ml), 1% penicillin (100 U/ml)-streptomycin (100 ug/ml). The fibroblast stock was maintained at 37° C. in a humidified atmosphere of 5% CO2 and 95% air.
(§3) For experiments using fibroblasts, confluent stock cultures (5-18 passages) were washed once with Dulbecco's PBS (phosphate buffered saline) prior to the addition of 3 ml aliquots of experimental MEM containing 25% (v/v) D2 O, 9% (v/v) dilapidated FBS, 1% FBS (v/v), 1% MEM vitamins and L-glutamine, and 2% of essential and non-essential amino acids and 20 mM HEPES buffer.
as §1
(§4) After 96 hours of incubation, medium was removed from the cell cultures, and the cells were washed with Dulbecco's PBS and were harvested with 0.05% trypsin - 0.02% EDTA. The protease was deactivated with an equivolume aliquot of soybean trypsin inhibitor, and the resulting cell suspension was centrifuged for 5 minutes at 500xg. An internal standard of 5B-cholestan-3B-ol was added to the pellets prior to extraction with an 8:4:3 chloroform:methanol:water Folch mixture, as described in Folch et al., J. Biol. Chem., 266: 497-509 (1957). An aliquot of the extract was blown to dryness under nitrogen and silylated with 2:1:1 MSTFA (a sylated reagent supplied by Pierce Co.): toluene:-pyridine. Free cholesterol was determined by gas-liquid chromatography (GLC) on a Perkin-Elmer capillary gas-liquid chromatography model 8320 fitted with a 20 m DE-1 methylsilicon glass column (Supelco). The remaining extract was dried and saponified with 2% ethanolic KOH at 80° C. for one hour. The […] was then re-extracted and total cholesterol was measured by GLC after silylation. Cholesterol ester was calculated as the difference between the total and free cholesterol determinations. Newly synthesized cholesterol was determined by GLC-MS isotope mass ratios, using a Hewlett-Packard GC-MS spectrometer model 5890 fitted with DB-1 methyl silicon 0.18 i.d. 20 m glass column (Supelco), according to the method of J. Lipid. Res., 26: 950-954, supra. […]

The test system of experiment [3] is Human Fibroblasts. In words: De novo cholesterol synthesis in human fibroblasts (D2O). It counts as cell-based. The conditions noted are these: for % DE NOVO (De Novo Cholesterol Synthesis): 96 h, n = 3, untreated 19.0. The method, then: as §2, §3, §1, §4

Entries after “also recorded” stand apart in the source; their conditions may differ.

Consider `C[C@@H](CN)CCC[C@@H](C)[C@H]1CC[C@H]2[C@@H]3CC=C4C[C@@H](O)CC[C@]4(C)[C@H]3CC[C@]12C` [26-NH2, 26-aminocholesterol], for which the “I-LDL BINDING” value in experiment [1] (0.156 uM) is 40.9 +/- 3.1 ug LDL protein per mg cell pro; in experiment [1] (0.312 uM) it was 43.9 +/- 4.0 ug LDL protein per mg cell pro; in experiment [1] (0.625 uM), 52.4 +/- 8.8 ug LDL protein per mg cell pro. For the same molecule, the “LDL-binding (in words)” value in experiment [1] is listed as “do not provide a similar reduction; also recorded: little or no effect; also recorded: no impact”. For the same molecule, the “% ESTER (Percent Esterified Cholesterol)” value in experiment [2] (0.156 uM) was found to be 26.4%; in experiment [2] (0.312 uM), 18.6%; in experiment [2] (0.625 uM) it was 6.4%. Further, the “TOTAL CHOLESTEROL” value in experiment [2] (0.156 uM) was 27.9 +/- 5.3 ug cholesterol per mg cell pro; in experiment [2] (0.312 uM), 31.5 +/- 6.1 ug cholesterol per mg cell pro; in experiment [2] (0.625 uM), 20.3 +/- 6.4 ug cholesterol per mg cell pro. Besides, the “de novo cholesterol synthesis (in words)” value in experiment [3] is “significant reductions”. For the same molecule, the “% DE NOVO (De Novo Cholesterol Synthesis)” value (“% DE NOVO” for short) in experiment [3] (0.156 uM) worked out at 16.7%; in experiment [3] (0.312 uM) it was 10.0%; in experiment [3] (0.625 uM), 2.7%.
Take `CC(CO)CCC[C@@H](C)[C@H]1CC[C@H]2[C@@H]3CC=C4C[C@@H](O)CC[C@]4(C)[C@H]3CC[C@]12C` (stereo partly shown) [26-OH, 26-hydroxycholesterol]: the “I-LDL BINDING” value in experiment [1] (0.625 uM) is 53.6 +/- 1.3 ug LDL protein per mg cell pro. The “LDL-binding (in words)” value in experiment [1] is listed as “do not provide a similar reduction”. Also, in experiment [2] (0.625 uM), the “% ESTER (Percent Esterified Cholesterol)” value is 28.7% and the “TOTAL CHOLESTEROL” value was 24.7 +/- 2.8 ug cholesterol per mg cell pro. For the same molecule, the “de novo cholesterol synthesis (in words)” value in experiment [3] is listed as “significant reductions”. In addition, the “% DE NOVO” value in experiment [3] (0.625 uM) came to 3.9%.
For `CC(CS)CCC[C@@H](C)[C@H]1CC[C@H]2[C@@H]3CC=C4C[C@@H](O)CC[C@]4(C)[C@H]3CC[C@]12C` (stereo partly shown) [26-SH], the figures for the “I-LDL BINDING” value in experiment [1] (5.0 uM), in experiment [1] (10.0 uM) and in experiment [1] (20.0 uM) were 37.8 +/- 3.4 ug LDL protein per mg cell pro, 45.8 +/- 3.9 ug LDL protein per mg cell pro and 35.7 +/- 4.8 ug LDL protein per mg cell pro, respectively. Further, in experiment [1], the “LDL-binding (in words)” value was “no impact”. In addition, the “% ESTER (Percent Esterified Cholesterol)” value in experiment [2] (5.0 uM) is listed as 13.6%; in experiment [2] (10.0 uM), 31.1%; in experiment [2] (20.0 uM), 33.1%. Further, the “TOTAL CHOLESTEROL” value in experiment [2] (5.0 uM) is given as 26.0 +/- 1.7 ug cholesterol per mg cell pro; in experiment [2] (10.0 uM) it was 31.3 + /- 4.5 ug cholesterol per mg cell pro; in experiment [2] (20.0 uM), 26.1 +/- 1.0 ug cholesterol per mg cell pro. In experiment [3], the “de novo cholesterol synthesis (in words)” value is “no impact”. Further, the “% DE NOVO” value was determined as 27.8% in experiment [3] (5.0 uM), 21.9% in experiment [3] (10.0 uM) and 13.6% in experiment [3] (20.0 uM).
